# According to PubChem BioAssay AID1996:
# Conditions: buffer; pH 7.4; 200.0 µM
row,SMILES,solubility kinetic
1,Clc1cccc(Cl)c1C1Nc2cccc3cccc(c23)N1,3 µg/mL
2,CCC1CN(C(=O)NCc2ccccc2)c2cc(Cl)ccc2O1 (stereo not drawn),< 0.4 µg/mL
3,COc1ccccc1NC(=S)N1CC(C)(C)C1=O,3 µg/mL
4,CCN1CNC(=S)N(c2cccc(C)c2)C1,> 35.3 µg/mL
5,CCc1ccc(C(=O)Nc2ccc3c(c2)n(C)c(=O)n3C)cc1,5.6 µg/mL
6,O=C(c1ccc(Cl)c([N+](=O)[O-])c1)N1CCCc2ccccc21,23.7 µg/mL
7,COc1ccccc1NC(=O)CN1C(=O)COc2ccc(C)cc21,16.2 µg/mL
8,CC(=O)c1cc(CCC(=O)NC2CCCCCC2)oc1C,> 43.7 µg/mL
9,O=C(NCc1ccc(F)cc1)c1cccnc1,> 34.5 µg/mL
10,Cc1cc(C)c2sc(NC(=O)CN3C(=O)CCC3=O)nc2c1,46.4 µg/mL
11,COc1ccc(Cc2nc(-c3ccncc3)no2)cc1,35.5 µg/mL
12,COc1ccc(NC(=O)CN2CCc3ccccc3C2)c(OC)c1,34.1 µg/mL
13,CC1=C(C(=O)O)N2C(=O)C(NC(=O)c3ccccc3Cl)C2SC1 (stereo not drawn),> 52.9 µg/mL
14,O=C(c1ccc2oc(CCc3ccccc3)nc2c1)N1CC[C@H](O)C1,41.1 µg/mL
15,CSc1ncc(C(=O)Nc2ccccc2)cn1,> 36.8 µg/mL
16,CCOc1ccc(N/C(N)=N/c2nc(C)c(C)c(=O)[nH]2)cc1,2.3 µg/mL
17,CCC(C)NC(=O)c1cc2c(=O)n3cccc(C)c3nc2s1 (stereo not drawn),46 µg/mL
18,CC1=CC(C)(C)NC(=S)N1C(C)c1ccccc1 (stereo not drawn),7.2 µg/mL
19,Cc1cccc(N(O)C(=O)Nc2cccc(Cl)c2)c1,10.2 µg/mL
20,O=C(COc1ccccc1)NCCc1cnc[nH]1,> 36.8 µg/mL
21,CCc1nc(N=C(N)N)nc2ccccc12,28 µg/mL
22,COc1cc(OC)c(NC(=O)Cc2cccs2)cc1Cl,32.1 µg/mL
23,COc1ccc(-c2cc3ccccc3[nH]2)cc1,1.4 µg/mL
24,CCOc1ccc(S(=O)(=O)NCC2CCCO2)c2ccccc12 (stereo not drawn),42.2 µg/mL

row,SMILES,solubility kinetic
1,CCc1ccccc1NC(=O)N1CCCc2ccccc21,22.8 µg/mL
2,Cc1ccc(NCC(=O)N/N=C/c2cc(O)ccc2[N+](=O)[O-])cc1,> 49.2 µg/mL
3,C=C1C(C(=O)Nc2ccccc2)C1C(=O)Nc1ccccc1 (stereo not drawn),< 0.3 µg/mL
4,CCCC(=O)Nc1c(C(=O)OCC)oc2ccccc12,> 41.3 µg/mL
5,Cn1c(=O)c2c(nc3n2CC(CO)O3)n(C)c1=O (stereo not drawn),> 37.8 µg/mL
6,C=CCN=C1S/C(=C/c2ccc([N+](=O)[O-])cc2)C(=O)N1CC=C,< 0.2 µg/mL
7,CCOC(=O)c1c(/N=C/c2cccc([N+](=O)[O-])c2O)sc2c1CCC2,49.9 µg/mL
8,COc1ccc(CC(=O)NCCN2CCOCC2)cc1,> 41.8 µg/mL
9,COc1ccccc1C(=O)NC(=O)COC(=O)c1nccnc1N,> 49.5 µg/mL
10,Cc1ccc(C)c(C(C)NC(=O)C2CCCO2)c1 (stereo not drawn),36.7 µg/mL
11,O=C(Oc1ccc(C(=S)N2CCOCC2)cc1)c1ccc(F)cc1,2.8 µg/mL
12,COc1ccc(/C=C/C(=O)NC(=S)N2CCCCC2)cc1OC,> 50.2 µg/mL
13,Cc1nc(-c2ccccc2)nc2sc(C(=O)c3ccc(F)cc3)c(N)c12,1.5 µg/mL
14,O=c1c2cc(-c3ccccc3)sc2nc2n1CCC2,1.5 µg/mL
15,O=C(CSc1nncs1)NCc1ccc(F)cc1,> 42.5 µg/mL
16,Cc1ccc(S(=O)(=O)N2CCC[C@H]2C(=O)OCC(=O)Nc2ccc3c(c2)OCO3)cc1,34.3 µg/mL
17,CCCN1CCC(N2CCCC(C(=O)O)C2)CC1.Cl (stereo not drawn),> 49.1 µg/mL
18,CC(C)COc1cccc(C(=O)N(C)CC(=O)Nc2cccc3ccccc23)c1,33.6 µg/mL
19,CCNC(=O)Cc1ccc(S(=O)(=O)N2CCOCC2)s1,> 47.8 µg/mL
20,O=C(N/C(=C/c1ccccc1Cl)C(=O)N1CCOCC1)c1ccccc1,> 55.6 µg/mL
21,O=C1Nc2ccccc2/C1=C/c1nc2ccccc2c(=O)n1-c1ccc(O)cc1,1.9 µg/mL
22,CC12CCC(C(=O)N3CCOCC3)([C@H](Br)C1=O)C2(C)C (stereo partly drawn),> 51.6 µg/mL
23,Cn1cccc1/C=C1/SC(=O)N(CC(=O)N2CCCC2)C1=O,15.2 µg/mL
24,Cc1ccc(C(=O)OCC(=O)NC2CC2)s1,> 35.9 µg/mL
